In US12637427B2, “ALDH-2 inhibitor compounds and methods of use” (Amygdala Neurosciences, Inc., priority 2022, dated 2026):

Columns and labels:
MAO-A = molecular target: T1, MAO-A (Homo sapiens, UniProt P21397); assay: MAO-A inhibition assay; format: biochemical; conditions: 20 min pre-incubation; 10 μM = highest concentration tested; read-out: Enzymatic Assays IC50 MAO-A
T1 sequence (P21397 1-527): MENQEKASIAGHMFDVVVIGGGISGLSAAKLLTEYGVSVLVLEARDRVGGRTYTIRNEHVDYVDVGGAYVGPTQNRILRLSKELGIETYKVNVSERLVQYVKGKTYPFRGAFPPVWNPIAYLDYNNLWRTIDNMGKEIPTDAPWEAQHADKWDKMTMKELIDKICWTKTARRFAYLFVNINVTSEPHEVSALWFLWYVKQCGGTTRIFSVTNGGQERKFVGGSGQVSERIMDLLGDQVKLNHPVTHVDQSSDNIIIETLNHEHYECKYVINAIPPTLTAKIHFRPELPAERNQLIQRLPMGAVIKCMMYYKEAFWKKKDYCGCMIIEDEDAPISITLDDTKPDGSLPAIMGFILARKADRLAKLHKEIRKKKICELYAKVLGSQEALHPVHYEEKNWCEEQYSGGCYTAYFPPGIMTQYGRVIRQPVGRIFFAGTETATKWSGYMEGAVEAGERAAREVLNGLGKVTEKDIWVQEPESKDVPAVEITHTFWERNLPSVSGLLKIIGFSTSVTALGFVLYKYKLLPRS
Experimental: D. MAO-A and MAO-B inhibition assays: MAO assays included luminogenic MAO substrate, reaction buffers, Luciferin Detection, and a reconstitution buffer with esterase. The MAO reaction mixture used in the assay included microsome contained MAO-A (2 μg) or MAO-B (10 μg), 160 μM substrate for MAO-A or 16 μM substrate for MAO-B, MAO-A buffer (100 mM Hepes buffer, pH 7.5, 5% glycerol) or MAO-B buffer (100 mM Hepes, pH 7.5, 5% glycerol, 10% dimethyl sulfoxide) in a final volume of 30 μL. After 20 minutes of pre-incubation of the MAO-A or MAO-B enzyme with the test ALDH-2 inhibitor compound, the reaction was initiated by adding enzyme substrate and the […] reaction was allowed to proceed for 60 minutes. Reconstituted Luciferin Detection Reagent (30 μL) was then added is added to simultaneously stop the MAO reaction and convert the methyl ester derivative to luciferin and produce light. The amount of light produced is directly proportional to the activity of MAO. The mixtures were further incubated for 20 minutes and activity of the enzyme was determined using Perkin-Elmer Envision Reader.

recombinant human ALDH-3 = molecular target: T2, recombinant human ALDH-3 (Homo sapiens, UniProt P30838); assay: ALDH-3 inhibition assay; format: biochemical; conditions: 60 min pre-incubation; 10 μM = highest concentration tested; read-out: Enzymatic Assays IC50 ALDH-3
T2 sequence (P30838 1-453): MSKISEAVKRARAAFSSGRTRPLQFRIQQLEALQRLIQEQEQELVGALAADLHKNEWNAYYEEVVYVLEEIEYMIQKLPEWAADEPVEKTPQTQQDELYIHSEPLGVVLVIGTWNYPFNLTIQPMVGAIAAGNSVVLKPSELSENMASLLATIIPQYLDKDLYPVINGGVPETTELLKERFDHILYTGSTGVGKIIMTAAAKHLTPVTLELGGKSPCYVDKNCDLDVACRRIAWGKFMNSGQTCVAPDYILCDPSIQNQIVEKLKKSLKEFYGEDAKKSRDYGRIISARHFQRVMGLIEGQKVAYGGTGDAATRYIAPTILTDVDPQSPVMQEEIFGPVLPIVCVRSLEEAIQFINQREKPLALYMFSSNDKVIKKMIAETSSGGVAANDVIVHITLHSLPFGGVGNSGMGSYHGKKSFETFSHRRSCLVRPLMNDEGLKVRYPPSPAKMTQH
Experimental: ALDH-3 inhibition assay: The ALDH-3 reaction mixture used in the assay contained 200 μM benzaldehyde, 2.5 mM NAD+, 20 mM NaCl, 10 mM MgCl2, and 10 nM recombinant human ALDH-3 in 50 mM Hepes buffer, pH 7.5 in a final volume of 10 μL using 384-well Corning 3820 plates. After 60 min of pre-incubation of the test ALDH-2 inhibitor compound with ALDH-3, the reaction was started by adding NAD+ and benzaldehyde and the assay reaction mixture was allowed to proceed for 60 minutes. Activity of the ALDH-3 enzyme was determined by monitoring NADH formation using Perkin-Elmer Envision Reader with excitation and emission wavelengths set at 340 and 460 nm, respectively.

IC50 (MAO-A) [µM] | IC50 (recombinant human ALDH-3) [µM] | SMILES
> 10 | > 10 | Cc1cccc(Cl)c1C(=O)NCc1ccc(-c2cccc(=O)[nH]2)cc1 [(1a), 2-Chloro-6-methyl-N-(4-(6-oxo-1,6-dihydropyridin-2-yl)benzyl)benzamide]
> 10 | > 10 | O=C(NCc1ccc(-c2cccc(=O)[nH]2)cc1)c1ccccc1Cl [(1b), 2-Chloro-N-(4-(6-oxo-1,6-dihydropyridin-2-yl)benzyl)benzamide]
> 10 | > 10 | Cc1nccc(Cl)c1C(=O)NCc1ccc(-c2cccc(=O)[nH]2)cc1 [(1c), 4-Chloro-2-methyl-N-(4-(6-oxo-1,6-dihydropyridin-2-yl)benzyl)nicotinamide]
> 10 | > 10 | Cc1nccc(Br)c1C(=O)NCc1ccc(-c2[nH]c(=O)ccc2F)cc1 [(1g), 4-Bromo-N-(4-(3-fluoro-6-oxo-1,6-dihydropyridin-2-yl)benzyl)-2-methylnicotinamide]
> 10 | > 10 | Cc1cccc(Cl)c1C(=O)NCc1ccc(-c2cccc(=O)[nH]2)nc1 [(1k), 2-Chloro-6-methyl-N-((6′-oxo-1′,6′-dihydro-[2,2′-bipyridin]-5-yl)methyl)benzamide]
> 10 | > 10 | O=C(NCc1ccc(-c2cccc(=O)[nH]2)nc1)c1ccccc1Cl [(1l), 2-chloro-N-((6′-oxo-1′,6′-dihydro-[2,2′-bipyridin]-5-yl)methyl)benzamide]
